By pIC50 is commonly meant −log10 of the IC50, conventionally taken in molar units.

Data on 1 molecule can be found in article PMC4177084 (Journal of Thyroid Research, 2014).

In assay [1] the target is T1, FGFR3(K650M) (Homo sapiens, UniProt P22607, K650M).
T1 construct: purchased Carna Biosciences, Inc. (Kobe, Japan)
As to the kind of experiment: Cell free kinase inhibition assay. The class given is biochemical.

Assay [2] deals with CCDC-RET, human DTC TPC1 cell lines. As to conditions: cited from earlier work.
For assay [3], the target named is T2, CDK4 (Homo sapiens, UniProt P11802).
T2 construct: purchased Carna Biosciences, Inc. (Kobe, Japan)
T2 sequence (P11802 whole entry): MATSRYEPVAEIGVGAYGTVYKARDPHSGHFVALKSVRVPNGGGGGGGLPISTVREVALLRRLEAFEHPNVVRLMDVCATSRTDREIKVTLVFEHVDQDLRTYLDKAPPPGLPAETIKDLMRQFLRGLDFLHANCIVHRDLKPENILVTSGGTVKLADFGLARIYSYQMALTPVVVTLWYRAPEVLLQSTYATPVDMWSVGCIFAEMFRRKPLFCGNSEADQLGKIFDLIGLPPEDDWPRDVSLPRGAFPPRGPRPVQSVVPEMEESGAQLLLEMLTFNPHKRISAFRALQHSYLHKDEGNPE
T2 sequence (P30281 whole entry partner): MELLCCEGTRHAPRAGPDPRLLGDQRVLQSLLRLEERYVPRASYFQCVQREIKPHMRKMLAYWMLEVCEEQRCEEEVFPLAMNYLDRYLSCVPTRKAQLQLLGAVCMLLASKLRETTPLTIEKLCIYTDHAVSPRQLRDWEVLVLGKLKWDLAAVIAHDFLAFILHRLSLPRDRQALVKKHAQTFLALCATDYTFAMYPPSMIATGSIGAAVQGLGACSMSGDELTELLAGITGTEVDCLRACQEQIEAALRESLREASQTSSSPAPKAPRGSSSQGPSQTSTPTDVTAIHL
The experiment in a line: Cell free kinase inhibition assay. The assay is classed as biochemical.

Assay [4] has as its target T3, PDGFRβ (Homo sapiens, UniProt P09619).
T3 construct: purchased Carna Biosciences, Inc. (Kobe, Japan)
As to the kind of experiment: Cell free kinase inhibition assay. The class given is biochemical.

Assay [5] concerns the target T4, WEE1 (Homo sapiens, UniProt P30291).
T4 construct: purchased Carna Biosciences, Inc. (Kobe, Japan)
The experiment in a line: Cell free kinase inhibition assay. The class given is biochemical.

For assay [6], the system named is RO82-W-1 xenograft. As to the kind of experiment: Human thyroid cancer xenograft model, tumor growth. The assay is classed as in vivo, nude mice. As to the method: Nude mice (CAnN.Cg-Foxn1nu/CrlCrlj, female, 5-6 weeks old) were obtained from Charles River Laboratories Japan (Kanagawa, Japan). Mice were maintained under specific pathogen-free conditions and housed in barrier facilities on a 12 h light/dark cycle, with food and water ad libitum. All procedures using laboratory animals were done in accordance with all applicable institutional and government regulatory guidelines and policies and were performed in an animal facility accredited by the Center for Accreditation of Laboratory Animal Care of the Japan Health Sciences Foundation.
Tumor cells were cultured in appropriate culture mediums. Cells were harvested with 0.05% or 0.25% (w/v) trypsin/EDTA and suspended with 50% (v/v) BD Matrigel (BD Biosciences, San Jose, CA) in the mixture of culture mediums at a density of 5–10 × 10^7 cells/mL. Then, 0.1-0.2 mL of the cell suspension was inoculated subcutaneously into the right flank region of each mouse. […] The tumor size was measured in two dimensions by using a caliper, and the volume was calculated by using the formula: tumor volume (mm^3) = 1/2 length (mm) × [width (mm)]^2. The change in tumor volume in the treated group relative to that in the control group was calculated according to the following formula: ΔT/C = (ΔT/ΔC) × 100%, where ΔT and ΔC are the change in tumor volume (i.e., growth) for the treated and vehicle control group, respectively. The percentage of tumor growth inhibition (%TGI) was calculated from the formula: [(1 − ΔT/ΔC) × 100].
Supplementary Fig. S7 Comparison of antitumor activity with antiangiogenesis activity in human differentiated thyroid cancer RO82-W-1 xenografts in nude mice.
Nude mice bearing RO82-W-1 xenografts […]
when tumor volumes reached about 200 mm3 (day 1). The tumor volume was measured on day 22. Each group consisted of 6 mice. Data are shown as means ± SD. * P < 0.05 compared with vehicle-treated mice.
(b) The percentage of tumor growth inhibition (%TGI). Each group consisted of 6 mice. Antitumor activity was calculated as %TGI at day 22. Data are shown as means ± SD. * P < 0.05 compared […]
analyze the relationship between antitumor activity (%TGI) and antiangiogenesis activity (percentage of […]
sorafenib-treated groups were plotted on the X- and Y-axes, respectively. %TGI and %MVI was determined as described in Materials and Methods. Analysis of covariance (ANCOVA) for %TGI was examined by using %MVI as a covariate (P<0.05)
(In general: Xenograft models place foreign cells or tissue in a host animal.)

Assay [7] concerns the target T5, TIE2 (Homo sapiens, UniProt Q02763).
T5 construct: purchased Carna Biosciences, Inc. (Kobe, Japan)
The experiment in a line: Cell free kinase inhibition assay. The class given is biochemical.

For assay [8], the system named is FRS2. As to the kind of experiment: Western blot of FRS2 phosphorylation in RO82-W-1 xenografts. The assay is classed as in vivo, nude mice. As to conditions: 2 h after single oral 3, 10, 30, or 100 mg/kg.
Assay [9] has as its target T6, SYK (Homo sapiens, UniProt P43405).
T6 construct: purchased Carna Biosciences, Inc. (Kobe, Japan)
The experiment in a line: Cell free kinase inhibition assay. The assay is classed as biochemical.

For assay [10], the target named is T7, CDK6 (Homo sapiens, UniProt Q00534).
T7 construct: purchased Carna Biosciences, Inc. (Kobe, Japan)
T7 sequence (Q00534 whole entry): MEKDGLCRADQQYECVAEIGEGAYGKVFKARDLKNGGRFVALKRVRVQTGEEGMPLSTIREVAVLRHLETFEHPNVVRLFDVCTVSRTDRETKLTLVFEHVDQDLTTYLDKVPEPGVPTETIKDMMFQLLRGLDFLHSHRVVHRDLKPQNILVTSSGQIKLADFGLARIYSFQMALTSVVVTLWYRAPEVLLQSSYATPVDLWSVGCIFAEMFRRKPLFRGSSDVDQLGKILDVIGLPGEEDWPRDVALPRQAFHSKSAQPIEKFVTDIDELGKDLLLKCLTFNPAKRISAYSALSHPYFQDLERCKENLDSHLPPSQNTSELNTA
T7 sequence (P30281 whole entry partner): as the sequence (P30281 whole entry partner) above
As to the kind of experiment: Cell free kinase inhibition assay. The assay is classed as biochemical.

Assay [11] concerns the target T8, IGF1R (Homo sapiens, UniProt P08069).
T8 construct: purchased Carna Biosciences, Inc. (Kobe, Japan)
The experiment in a line: Cell free kinase inhibition assay. The assay is classed as biochemical.

Assay [12] concerns the target T9, p70S6K (Homo sapiens, UniProt P23443).
T9 construct: purchased Carna Biosciences, Inc. (Kobe, Japan)
The experiment in a line: Cell free kinase inhibition assay. The assay is classed as biochemical.

The subject of assay [13] is FTC-238 cells. The experiment in a line: Antiproliferation assay (WST-8). The assay is classed as cell-based, human. Particulars: Homo sapiens, 72 h; FTC-238 (DTC), antiproliferative, 3 days. (In general: Tetrazolium assays rely on reduction of a dye to a coloured formazan, in cell work by metabolically active cells.)
Assay [14] relates to FTC-236 cells. As to the kind of experiment: Antiproliferation assay (WST-8). The assay is classed as cell-based, human. Particulars: Homo sapiens, 72 h; FTC-236 (DTC), antiproliferative, 3 days; read-out: IC50.

pIC50: −log10 of the molar value. Where only a bound is given, the exact number is not on record here.

T5 sequence (Q02763 23-1124): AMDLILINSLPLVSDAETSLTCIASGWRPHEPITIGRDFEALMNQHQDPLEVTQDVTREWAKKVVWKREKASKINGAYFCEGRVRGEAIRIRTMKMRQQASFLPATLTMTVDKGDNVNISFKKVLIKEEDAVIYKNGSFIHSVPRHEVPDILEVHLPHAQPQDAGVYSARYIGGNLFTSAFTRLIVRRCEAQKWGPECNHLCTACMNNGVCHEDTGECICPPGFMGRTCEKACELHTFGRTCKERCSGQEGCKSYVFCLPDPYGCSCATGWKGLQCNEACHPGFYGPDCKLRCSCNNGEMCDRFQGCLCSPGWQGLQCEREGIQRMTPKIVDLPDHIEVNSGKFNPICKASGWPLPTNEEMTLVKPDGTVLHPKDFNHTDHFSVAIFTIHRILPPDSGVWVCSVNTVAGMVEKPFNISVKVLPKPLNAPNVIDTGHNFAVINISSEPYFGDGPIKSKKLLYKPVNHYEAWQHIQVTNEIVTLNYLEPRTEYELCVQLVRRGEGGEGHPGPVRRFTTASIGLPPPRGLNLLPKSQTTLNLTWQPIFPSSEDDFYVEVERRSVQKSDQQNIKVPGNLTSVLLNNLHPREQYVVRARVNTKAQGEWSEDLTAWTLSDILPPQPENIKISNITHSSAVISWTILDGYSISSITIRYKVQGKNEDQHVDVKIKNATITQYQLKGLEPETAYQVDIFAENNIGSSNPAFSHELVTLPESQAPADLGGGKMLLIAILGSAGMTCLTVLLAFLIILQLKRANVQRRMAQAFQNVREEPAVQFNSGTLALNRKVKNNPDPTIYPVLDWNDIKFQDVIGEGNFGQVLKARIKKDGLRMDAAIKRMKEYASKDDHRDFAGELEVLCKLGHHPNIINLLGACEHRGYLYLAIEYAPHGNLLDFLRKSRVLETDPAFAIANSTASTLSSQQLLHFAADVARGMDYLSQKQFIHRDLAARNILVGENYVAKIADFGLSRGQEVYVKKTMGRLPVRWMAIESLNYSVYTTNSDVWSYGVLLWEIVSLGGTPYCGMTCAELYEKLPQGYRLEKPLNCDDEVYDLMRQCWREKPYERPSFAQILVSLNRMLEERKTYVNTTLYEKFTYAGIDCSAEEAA
T1 sequence (P22607 23-806 K650M): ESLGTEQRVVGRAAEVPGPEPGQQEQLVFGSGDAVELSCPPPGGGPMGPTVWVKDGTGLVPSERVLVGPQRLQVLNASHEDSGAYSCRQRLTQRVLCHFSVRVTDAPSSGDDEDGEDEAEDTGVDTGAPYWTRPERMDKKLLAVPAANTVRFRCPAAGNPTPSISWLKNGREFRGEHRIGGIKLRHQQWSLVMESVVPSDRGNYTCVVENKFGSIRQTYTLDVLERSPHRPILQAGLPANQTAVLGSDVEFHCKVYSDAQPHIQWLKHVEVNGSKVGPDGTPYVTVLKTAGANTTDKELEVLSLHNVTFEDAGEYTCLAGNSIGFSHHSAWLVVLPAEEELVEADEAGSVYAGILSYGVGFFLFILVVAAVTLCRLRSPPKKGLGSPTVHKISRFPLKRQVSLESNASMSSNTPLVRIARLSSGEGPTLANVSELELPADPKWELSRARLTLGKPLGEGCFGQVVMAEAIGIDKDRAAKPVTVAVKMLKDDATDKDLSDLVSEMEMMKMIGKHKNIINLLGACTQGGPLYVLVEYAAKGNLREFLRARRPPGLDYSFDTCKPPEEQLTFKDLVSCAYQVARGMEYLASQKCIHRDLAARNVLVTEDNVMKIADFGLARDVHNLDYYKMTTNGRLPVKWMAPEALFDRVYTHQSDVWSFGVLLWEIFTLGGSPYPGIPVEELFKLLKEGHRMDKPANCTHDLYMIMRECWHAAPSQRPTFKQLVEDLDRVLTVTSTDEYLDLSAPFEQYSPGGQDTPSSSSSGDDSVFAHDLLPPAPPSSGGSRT
T9 sequence (P23443 whole entry): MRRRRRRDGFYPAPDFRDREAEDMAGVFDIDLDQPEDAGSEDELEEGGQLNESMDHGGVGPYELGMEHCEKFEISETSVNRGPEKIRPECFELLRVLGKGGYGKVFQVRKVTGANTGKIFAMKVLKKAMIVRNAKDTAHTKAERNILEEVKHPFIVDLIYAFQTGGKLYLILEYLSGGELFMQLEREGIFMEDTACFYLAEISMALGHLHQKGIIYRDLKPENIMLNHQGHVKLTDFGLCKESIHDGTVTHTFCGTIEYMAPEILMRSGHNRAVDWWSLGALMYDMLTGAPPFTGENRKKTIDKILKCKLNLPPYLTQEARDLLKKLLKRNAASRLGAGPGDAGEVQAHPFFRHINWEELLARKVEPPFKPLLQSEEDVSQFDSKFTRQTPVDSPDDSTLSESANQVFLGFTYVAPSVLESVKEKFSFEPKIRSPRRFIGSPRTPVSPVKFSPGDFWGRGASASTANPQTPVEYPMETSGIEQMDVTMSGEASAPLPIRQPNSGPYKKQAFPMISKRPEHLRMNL
T4 sequence (P30291 whole entry): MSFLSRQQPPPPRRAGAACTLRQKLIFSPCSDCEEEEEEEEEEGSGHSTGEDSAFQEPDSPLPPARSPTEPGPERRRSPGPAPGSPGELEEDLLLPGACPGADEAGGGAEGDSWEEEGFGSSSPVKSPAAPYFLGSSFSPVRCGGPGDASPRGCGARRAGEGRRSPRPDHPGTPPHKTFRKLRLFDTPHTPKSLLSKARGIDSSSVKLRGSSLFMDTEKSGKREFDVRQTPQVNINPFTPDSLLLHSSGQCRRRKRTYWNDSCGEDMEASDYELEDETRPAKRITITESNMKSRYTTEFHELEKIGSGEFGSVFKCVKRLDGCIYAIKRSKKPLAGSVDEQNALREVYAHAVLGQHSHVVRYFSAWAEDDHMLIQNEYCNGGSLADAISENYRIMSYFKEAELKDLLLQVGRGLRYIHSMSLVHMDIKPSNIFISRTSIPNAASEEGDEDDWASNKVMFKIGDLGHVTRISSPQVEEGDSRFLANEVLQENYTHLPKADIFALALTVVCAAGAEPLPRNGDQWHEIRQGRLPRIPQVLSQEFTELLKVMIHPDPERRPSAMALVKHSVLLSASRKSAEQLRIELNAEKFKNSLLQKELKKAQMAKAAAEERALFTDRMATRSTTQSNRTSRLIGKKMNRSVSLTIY

As to `COc1cc2nccc(Oc3ccc(NC(=O)NC4CC4)c(Cl)c3)c2cc1C(N)=O` [Lenvatinib, Lenvatinib mesilate], the pIC50 in assay [1] was 6.60; in [3], under 5.00; in [4], 6.80; in assay [5], under 5.00; in assay [7], 5.60; in assay [9], 5.06. Moreover, the negative-log IC50 (pIC50) in assay [10] is under 5.00; in assay [11] it was under 5.00; in assay [12] it was under 5.00; in assay [13] it was 4.74; in assay [14], 4.77. Besides, in assay [2], the “phosphorylation of CCDC-RET, in vitro proliferation and in vivo tumor growth of TPC1” value is on record as “inhibits”. For the same molecule, the antitumor activity entry in assay [6] (RO82-W-1 xenograft, 1, 3, and 10 mg/kg oral once daily 14 days) is recorded as “significant antitumor activity”. Also, the “antitumor activity compared with sorafenib (300 mg/kg)” value in assay [6] (RO82-W-1 xenografts, 100 mg/kg oral once daily 21 days, %TGI day 22) is given as “significant potent antitumor activity”. In assay [6] (RO82-W-1 xenografts, ANCOVA), the “antitumor activity (%TGI) normalized for angiogenesis inhibition (%MVI), versus sorafenib” value was “stronger antitumor activity”. Also, in [8], the “phosphorylation of FRS2” value was “decreased”.
